# Measured values from ChEMBL document CHEMBL6120963, “Discovery of Novel PROTAC SIRT6 Degraders with Potent Efficacy against Hepatocellular Carcinoma” (J Med Chem, 2024).
# Activity calls are given as the source filed them. The rule behind the calls is not given here.
# Tests used:
# SK-HEP1 [1] = assay: Downregulation of ANKRD44 expression in human SK-HEP1 cells at 2.5 uM incubated for 36 hrs; format: functional, cell-based
# [2] = Toxicity in BALB/c nude mouse xenografted with human SK-HEP1 cells assessed as pathological damage in liver at 10 mg/kg treated for 28 to 30 days by H and E staining based analysis; format: organism-based; settings: in vivo, time 28-30 day
# [3] = biological target: T1, Protein cereblon/NAD-dependent protein deacylase sirtuin-6 (Homo sapiens, UniProt Q8N6T7+Q96SW2); assay: In vivo PROTAC activity of CRBN/SIRT6 in human SK-HEP1 cells xenografted in BALB/c nude mouse assessed as induction of SIRT6 degradation at 10 mg/kg treated for 28 to 30 days under irradiation (3 Gy); format: functional, organism-based; settings: time 28-30 day
# SK-HEP1 [4] = assay: Inhibition of colony formation in human SK-HEP1 cells at 5 to 10 uM incubated for 10 to 14 days with replacement of medium containing compounds on every 3 days by crystal violet staining based analysis; format: functional, cell-based; settings: dose 5-10 µM, time 10-14 day
# [5] = Toxicity in BALB/c nude mouse xenografted with human SK-HEP1 cells assessed as histopathological abnormalities in lungs at 10 mg/kg treated for 28 to 30 days by H and E staining based analysis; format: organism-based; settings: in vivo, time 28-30 day
# [6] = Toxicity in BALB/c nude mouse xenografted with human SK-HEP1 cells assessed as histopathological abnormalities in spleen at 10 mg/kg treated for 28 to 30 days by H and E staining based analysis; format: organism-based; settings: in vivo, time 28-30 day
# SK-HEP1 [7] = assay: Downregulation of FBXO44 expression in human SK-HEP1 cells at 2.5 uM incubated for 36 hrs in presence of MG132; format: functional, cell-based
# [8] = biological target: T1, Protein cereblon/NAD-dependent protein deacylase sirtuin-6; assay: PROTAC activity at CRBN/SIRT6 in human SK-HEP1 cells assessed as disruption of CHD4 recruitment to DSB sites at 2.5 uM incubated for 36 hrs followed by sorafenib treatment for 4 hrs by Western blot analysis; format: cell-based; settings: time 40.0 hrs
# SK-HEP1 [9] = assay: Synergistic antitumor activity against human SK-HEP1 cells xenografted in BALB/c nude mouse at 10 mg/kg treated for 28 to 30 days in presence of sorafenib relative to control; format: functional; settings: time 28-30 day
# SK-HEP1 [10] = assay: Downregulation of FBXO44 expression in human SK-HEP1 cells at 2.5 uM incubated for 36 hrs in presence of MLN4924; format: functional, cell-based
# SK-HEP1 [11] = assay: Effect of SIRT7 mRNA expression in human SK-HEP1 cells at 2.5 uM incubated for 36 hrs by RT-qPCR analysis; format: functional, cell-based
# SK-HEP1 [12] = assay: Antitumor activity against human SK-HEP1 cells xenografted in BALB/c nude mouse at 10 mg/kg treated for 28 to 30 days under irradiation (3 Gy) (reference value: 38.4 %); format: functional; settings: time 28-30 day
# SK-HEP1 [13] = assay: Downregulation of NAIF1 expression in human SK-HEP1 cells at 2.5 uM incubated for 36 hrs; format: functional, cell-based
# SK-HEP1 [14] = assay: Induction of apoptosis in human SK-HEP1 cells at 2.5 uM incubated for 72 hrs in presence of sorafenib by Annexin V-FITC/PI staining based flow cytometry; format: functional, cell-based
# SK-HEP1 [15] = assay: Downregulation of TEDC1 expression in human SK-HEP1 cells at 2.5 uM incubated for 36 hrs; format: functional, cell-based
# SK-HEP1 [16] = assay: Antitumor activity against human SK-HEP1 cells xenografted in BALB/c nude mouse at 10 mg/kg treated for 28 to 30 days relative to control; format: functional; settings: time 28-30 day
# T1 sequence (Q8N6T7 2-355 limits assumed): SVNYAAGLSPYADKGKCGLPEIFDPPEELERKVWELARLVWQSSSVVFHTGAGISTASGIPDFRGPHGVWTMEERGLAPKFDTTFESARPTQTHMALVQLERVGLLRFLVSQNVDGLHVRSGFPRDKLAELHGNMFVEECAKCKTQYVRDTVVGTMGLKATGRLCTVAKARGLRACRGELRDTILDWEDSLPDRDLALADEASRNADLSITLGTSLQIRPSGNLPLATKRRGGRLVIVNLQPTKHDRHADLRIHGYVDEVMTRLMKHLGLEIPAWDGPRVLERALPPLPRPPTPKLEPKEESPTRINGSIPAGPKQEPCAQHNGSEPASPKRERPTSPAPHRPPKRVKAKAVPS
# T1 sequence (Q96SW2 whole entry partner): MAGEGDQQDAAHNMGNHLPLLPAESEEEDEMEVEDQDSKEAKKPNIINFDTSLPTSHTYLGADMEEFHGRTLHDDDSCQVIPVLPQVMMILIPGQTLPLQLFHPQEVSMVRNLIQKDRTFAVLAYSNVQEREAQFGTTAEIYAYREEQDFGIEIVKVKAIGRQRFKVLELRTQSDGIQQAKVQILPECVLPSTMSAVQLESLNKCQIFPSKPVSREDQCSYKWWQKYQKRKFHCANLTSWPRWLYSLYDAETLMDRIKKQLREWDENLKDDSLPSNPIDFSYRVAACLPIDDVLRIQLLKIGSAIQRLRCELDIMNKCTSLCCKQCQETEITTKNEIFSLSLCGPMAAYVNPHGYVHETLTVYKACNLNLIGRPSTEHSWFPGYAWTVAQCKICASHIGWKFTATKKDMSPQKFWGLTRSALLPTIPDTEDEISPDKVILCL
structure (smiles),measurement,setting,value
Nc1cc(N2CCN(CC3CCN(c4cc5c(cc4F)C(=O)N(C4CCC(=O)NC4=O)C5=O)CC3)CC2)ccc1[N+](=O)[O-] (stereo unspecified),Activity,SK-HEP1 [1],Active
same,Activity,[2],Non-toxic
same,Activity,[3],Active
same,inhibition,SK-HEP1 [4],Active
same,Activity,[5],Non-toxic
same,Activity,[6],Non-toxic
same,Activity,SK-HEP1 [7],inactive
same,Activity,[8],Active
same,T/C,SK-HEP1 [9],18.2%
same,Activity,SK-HEP1 [10],inactive
same,Activity,SK-HEP1 [11],No effect
same,T/C,SK-HEP1 [12],26.1%
same,Activity,SK-HEP1 [13],Active
same,Activity,SK-HEP1 [14],Active
same,Activity,SK-HEP1 [15],Active
same,T/C,SK-HEP1 [16],39.6%
